Source: patent US20150087045A1, “CRYSTAL STRUCTURE OF HCV […] AND METHODS OF USE” (GILEAD P[…], priority 2012, published 2015)
Several values for one entry are separate records, joined by “and”; a condition that tells them apart may be missing. Equal entries are not always repeated.

Tests used:
[1] = Thermofluor analysis: melting temperature of polymerase constructs; format: physicochemical; conditions: polymerase itself
Method: Thermofluor analysis of HCV polymerases 1bWT, 1bΔ8, 2aWT, and 2aΔ8 was performed as previously described (36, 37) in the absence and presence of symmetrical primer-template pairs or fused hairpin primer-template RNA as described in Example 2.

[2] = system: genotype 1b (−) IRES RNA template; test: De novo RNA synthesis activity of HCV NS5B polymerase constructs; format: biochemical, hepatitis C virus; conditions: 2a Δ8 with Gly-Gly linker compared to wild-type 2a
Method: HCV activity assays were performed in a 200 μL mixture containing 1 μM of the four natural ribonucleotides, [α-^32P]UTP, 20 ng/μL of genotype 1b (−) IRES RNA template, 1 unit/μL of SUPERase.In (Ambion, Austin, Tex.), 40 ng/μL of NS5B, 5 mM MgCl2, and 2 mM DTT in 50 mM HEPES buffer (pH 7.5). The reaction was incubated at 27° C. and 20 μL aliquots were taken at the desired time points and quenched by mixing in 80 μL of stop solution (12.5 mM EDTA, 2.25 M NaCl, and 225 mM sodium citrate).

[3] = molecular target: T1, HCV NS5B polymerase 1b WT (Hepatitis C virus genotype 1b, UniProt P26663, E2505Q/E2506Q/K2533R/L2466Q/R2963Q); test: Inhibition assay (chain termination) with construct 1b WT; format: biochemical, hepatitis C virus genotype 1b BK isolate; conditions: one value or range given for both 1b WT and 1b Δ8
T1 construct: 1b WT; made in house; host or cells: E. coli Rosetta DE3
Method: For constructs 1bWT and 1bΔ8, inhibition assays were performed in a 120 μL mixture containing 5 μM of the four natural ribonucleotides, [α-^32P]UTP, 20 ng/μL of genotype 1b (−) IRES RNA template, 1 unit/μL of SUPERase.In (Ambion, Austin, Tex.), 40 ng/μL of NS5B, 5 mM MgCl2, and 2 mM DTT in 50 mM HEPES buffer (pH 7.5). The reaction was incubated at 27° C. and a 20 μL aliquot was taken at 0, 30, 60, 90, and 120 minute time points and quenched by mixing with 80 μL of stop solution (12.5 mM EDTA, 2.25 M NaCl, and 225 mM sodium citrate). The radioactive RNA products were separated from unreacted substrates using a Hybond N+ membrane (GE Healthcare) as described previously (FIG. 2). The products were visualized and quantified using a phosphorimager. The reaction rates and IC 50 values were calculated using GraphFit.

[4] = molecular target: T2, HCV NS5B polymerase 1b Δ8 (Hepatitis C virus genotype 1b, UniProt P26663, DEL2863-2870/E2505Q/E2506Q/K2533R/L2466Q/R2963Q/S2872G/Y2871G); test: Inhibition assay (chain termination) with construct 1b Δ8; format: biochemical, hepatitis C virus genotype 1b BK isolate; conditions: for IC50: one value or range given for both 1b WT and 1b Δ8
T2 construct: 1bΔ8; made in house; host or cells: E. coli Rosetta DE3

HCV polymerase 1b S282T [5] = molecular target: T3, HCV polymerase 1b S282T (Hepatitis C virus genotype 1b, UniProt P26663, E2505Q/E2506Q/K2533R/L2466Q/R2963Q/S2701T); test: Inhibition assay (chain termination) with construct 1b S282T; format: biochemical, hepatitis C virus genotype 1b BK isolate
T3 construct: 1b S282T; made in house; host or cells: E. coli Rosetta DE3

HCV polymerase 1b S282T [6] = test: as above; format: biochemical, hepatitis C virus genotype 1b BK isolate; conditions: upon introduction of S282T into 1b WT
[7] = molecular target: T4, HCV polymerase 1b Δ8 S282T (Hepatitis C virus genotype 1b, UniProt P26663, DEL2863-2870/E2505Q/E2506Q/K2533R/L2466Q/R2963Q/S2701T/S2872G/Y2871G); test: Inhibition assay (chain termination) with construct 1b Δ8 S282T; format: biochemical, hepatitis C virus genotype 1b BK isolate
T4 construct: 1bΔ8 S282T; made in house; host or cells: E. coli Rosetta DE3

[8] = system: HCV polymerase 1b Δ8 S282T; test: as above; format: biochemical, hepatitis C virus genotype 1b BK isolate; conditions: upon introduction of S282T into 1b Δ8
[9] = molecular target: T5, HCV NS5B polymerase 2a WT (Hepatitis C virus genotype 2a, UniProt Q99IB8, E2528Q/E2529Q); test: Inhibition assay (chain termination) with construct 2a WT; format: biochemical, hepatitis C virus genotype 2a JFH1 isolate; conditions: 60 minutes incubation, 27° C.
T5 construct: 2a WT; made in house; host or cells: E. coli Rosetta DE3
Method: (§1) For constructs 2aWT and 2aΔ8, inhibition assays were performed in a 20 μL mixture containing varying concentrations of PSI-352666 or 2′-C-MeGTP, 5 μM of the four natural ribonucleotides, [α-^32P]UTP, 20 ng/μL of genotype 1b (−) IRES RNA template, 1 unit/μL of SUPERase.In (Ambion, Austin, Tex.), 40 ng/μL of NS5B, 5 mM MgCl2, and 2 mM DTT in 50 mM HEPES buffer (pH 7.5).
(§2) The reaction was incubated at 27° C. and quenched by adding 80 μL of stop solution after 60 minutes incubation with 2aWT or 15 minutes incubation with 2aΔ8. The radioactive RNA products were separated from unreacted substrates using a Hybond N+ membrane (GE Healthcare) as described previously^28. The products were visualized and quantified using a phosphorimager. The reaction rates and the IC50 values were calculated using GraphFit (Erithacus Software, Horley, Surrey, UK).

[10] = molecular target: T6, HCV NS5B polymerase 2a Δ8 (Hepatitis C virus genotype 2a, UniProt Q99IB8, DEL2886-2893/E2528Q/E2529Q/S2895G/Y2894G); test: Inhibition assay (chain termination) with construct 2a Δ8; format: biochemical, hepatitis C virus genotype 2a JFH1 isolate; conditions: 15 minutes incubation, 27° C.
T6 construct: 2aΔ8; made in house; host or cells: E. coli Rosetta DE3
Method: as §1, §2

| Compound | melting temperature (Tm) [1] | de novo RNA synthesis activity compared to 2a WT [2] | IC50 [3] | IC50 [4] | IC50 (HCV polymerase 1b S282T [5]) | increase in IC50 (HCV polymerase 1b S282T [6]) | IC50 [7] | increase in IC50 [8] | IC50 [9] | IC50 [10] | chain termination: elongation of the terminated product (*GGCX) ([4]; in the presence of the next correct incoming nucleotide (ATP), 0-60 min) |
| --- | --- | --- | --- | --- | --- | --- | --- | --- | --- | --- | --- |
| 2a WT: HCV polymerase genotype 2a JFH-1 construct, SEQ ID NO:3, C-terminal 21 amino acids replaced by hexahistidine tag, E86Q and E87Q | ~41 °C | – | – | – | – | – | – | – | – | – | – |
| 2a Δ8: 2a WT with the β-hairpin replaced by a Gly-Gly linker, SEQ ID NO:8 | ~35 °C | > 100 fold | – | – | – | – | – | – | – | – | – |
| C[C@@]1(O)[C@H](O)[C@@H](COP(=O)(O)OP(=O)(O)OP(=O)(O)O)O[C@H]1n1cnc2c(=O)[nH]c(N)nc21 [2′-C-MeGTP] | – | – | 7 to 13 µM | 7 to 13 µM | > 100 µM | > 10 fold | > 100 µM | > 10 fold | – | – | – |
| C[C@@]1(F)[C@H](O)[C@@H](COP(=O)(O)OP(=O)(O)OP(=O)(O)O)O[C@H]1n1cnc2c(=O)[nH]c(N)nc21 [PSI-352666] | – | – | 4 µM | 4 µM | 9 to 14 µM | ~2.5 fold | 9 to 14 µM | ~2.5 fold | 6.05 ± 0.82 µM | 6 µM and 6.41 µM | not further elongated |
